Measured values as given in patent US20120316245A1, “CO-CRYSTALS OF AGOMELATINE, A PROCESS FOR THERE PREPARATION AND PHARMACEUTICAL COMPOSITIONS CONTAINING THEM” (LES LABORATOIRES SERVIER, priority 2011, published 2012).

Test: Measurement of the dissolution rate of the co-crystals (tDISS apparatus, pION)
Format: physicochemical
Conditions: 37° C., stirring speed 700 rpm
From the text: The results obtained are collated in the following tables and are expressed as percentage increases in the dissolution rate of the co-crystal compared to the dissolution rate obtained for agomelatine of form II contained in the marketed Valdoxan® form: [formula]

## COc1ccc2cccc(CCNC(C)=O)c2c1.COc1ccc2cccc(CCNC(C)=O)c2c1.O=C(O)C(=O)O [Compound of Example 7, Co-Crystal of Agomelatine/Oxalic Acid (2/1)]
0.01 N HCl
  percentage increase in the dissolution rate of the co-crystal compared to agomelatine of form II (Valdoxan): +1.5%
pH 6.8 buffer
  percentage increase in the dissolution rate of the co-crystal compared to agomelatine of form II (Valdoxan): +33%

## COc1ccc2cccc(CCNC(C)=O)c2c1.O=C(O)CC(=O)O [Compound of Example 4, Co-Crystal of Agomelatine/Malonic Acid (1/1)]
0.01 N HCl
  percentage increase in the dissolution rate of the co-crystal compared to agomelatine of form II (Valdoxan): −55%
pH 6.8 buffer
  percentage increase in the dissolution rate of the co-crystal compared to agomelatine of form II (Valdoxan): −21%

## COc1ccc2cccc(CCNC(C)=O)c2c1.O=C(O)CO [Compound of Example 10, Co-Crystal of Agomelatine/Glycolic Acid (1/1)]
0.01 N HCl
  percentage increase in the dissolution rate of the co-crystal compared to agomelatine of form II (Valdoxan): −30%
pH 6.8 buffer
  percentage increase in the dissolution rate of the co-crystal compared to agomelatine of form II (Valdoxan): −30%

## COc1ccc2cccc(CCNC(C)=O)c2c1.O=C(O)CCC(=O)C(=O)O [Compound of Example 9, Co-Crystal of Agomelatine/Ketoglutaric Acid (1/1)]
0.01 N HCl
  percentage increase in the dissolution rate of the co-crystal compared to agomelatine of form II (Valdoxan): −47%
pH 6.8 buffer
  percentage increase in the dissolution rate of the co-crystal compared to agomelatine of form II (Valdoxan): −32%

## COc1ccc2cccc(CCNC(C)=O)c2c1.O=C(O)C=CC(=O)O [Compound of Example 3, Co-Crystal of Agomelatine/Maleic Acid (1/1)]
0.01 N HCl
  percentage increase in the dissolution rate of the co-crystal compared to agomelatine of form II (Valdoxan): −26%
pH 6.8 buffer
  percentage increase in the dissolution rate of the co-crystal compared to agomelatine of form II (Valdoxan): −4%

## COc1ccc2cccc(CCNC(C)=O)c2c1.O=C(O)CCCC(=O)O [Compound of Example 8, Co-Crystal of Agomelatine/Glutaric Acid (1/1)]
0.01 N HCl
  percentage increase in the dissolution rate of the co-crystal compared to agomelatine of form II (Valdoxan): −42%
pH 6.8 buffer
  percentage increase in the dissolution rate of the co-crystal compared to agomelatine of form II (Valdoxan): −29%

## COc1ccc2cccc(CCNC(C)=O)c2c1.O=C(O)c1ccc(O)cc1.O=C(O)c1ccc(O)cc1 [Compound of Example 6, Co-Crystal of Agomelatine/Para-Hydroxybenzoic Acid (1/2)]
0.01 N HCl
  percentage increase in the dissolution rate of the co-crystal compared to agomelatine of form II (Valdoxan): +19%
pH 6.8 buffer
  percentage increase in the dissolution rate of the co-crystal compared to agomelatine of form II (Valdoxan): +46%

## COc1ccc2cccc(CCNC(C)=O)c2c1.O=C(O)CC(O)(CC(=O)O)C(=O)O [Compound of Example 1, Co-Crystal of Agomelatine/Citric Acid (1/1)]
0.01 N HCl
  percentage increase in the dissolution rate of the co-crystal compared to agomelatine of form II (Valdoxan): +25%
pH 6.8 buffer
  percentage increase in the dissolution rate of the co-crystal compared to agomelatine of form II (Valdoxan): +70%

## COc1ccc2cccc(CCNC(C)=O)c2c1.COc1ccc2cccc(CCNC(C)=O)c2c1.O=C(O)c1cc(O)c(O)c(O)c1 [Compound of Example 2, Co-Crystal of Agomelatine/Gallic Acid (2/1)]
0.01 N HCl
  percentage increase in the dissolution rate of the co-crystal compared to agomelatine of form II (Valdoxan): +37%
pH 6.8 buffer
  percentage increase in the dissolution rate of the co-crystal compared to agomelatine of form II (Valdoxan): +29%

## COc1ccc2cccc(CCNC(C)=O)c2c1.COc1ccc2cccc(CCNC(C)=O)c2c1.O=C(O)c1ccc(O)cc1 [Compound of Example 5, Co-Crystal of Agomelatine/Para-Hydroxybenzoic Acid (2/1)]
0.01 N HCl
  percentage increase in the dissolution rate of the co-crystal compared to agomelatine of form II (Valdoxan): +97%
pH 6.8 buffer
  percentage increase in the dissolution rate of the co-crystal compared to agomelatine of form II (Valdoxan): +89%
